In patent publication US20200038399A1, “FORMULATIONS, METHODS, KIT, AND DOSAGE FORMS FOR TREATING BACTERIAL INFECTION” (Motif BioSciences Inc., priority 2016, published 2020):
Read-outs that look alike come from different tables or passages of the source.

Legend:
S. aureus 101 [1] = test: MIC determination; format: cell-based, Staphylococcus aureus
Procedure: (§1) Minimum inhibitory concentration (MIC) determination.
(§2) In order to choose the appropriate concentrations to be tested in the checkerboard experiments, minimum inhibitory concentrations (MICs) were determined first. […] Table 6) in microtiter plates. Stock solutions (10 mg/ml) of reference antibiotics were prepared in DMSO (except for tobramycin, gentamicin, lomefloxacin, tetracycline) and stored at 4° C. The bacteria were grown in Mueller-Hinton Broth (BBL Mueller-Hinton Broth II, cation adjusted). S. pneumoniae was grown in Mueller-Hinton Broth supplemented with 5% (v/v) lysed sheep blood. For the growth of H. influenzae HTM (Haemophilus test medium) was used containing Mueller-Hinton broth, yeast extract ([…], Difco) and supplemented with NAD and hematin (HTM Supplement, Oxoid SR0158E). M. catarrhalis was grown in Brain Heart Infusion medium (Oxoid). The bacteria were incubated for 18 hours at 37° C. in ambient air except for S. pneumoniae, H. influenzae and M. catarrhalis, which were incubated in the presence of 5% CO2. The MIC was determined as the lowest concentration of an individual drug that lead to no visible growth.

[2] = system: Staphylococcus aureus ATCC 25923; test: checkerboard synergy assay with iclaprim; format: cell-based; conditions: antibiotic in combination with iclaprim; S. aureus 25923
Procedure: (§3) The synergistic potential of iclaprim against Gram-positive and Gram-negative bacteria was determined using the checkerboard assay as described in Eliopoulos GM and Moellering, Jr. RC (1991), Antimicrobial combinations, pp. 432-492, in V. Lorian (ed.), Antibiotics in laboratory medicine, 3rd Ed., The Williams & Wilkins Co., Baltimore, the entire disclosure of which is herein incorporated by reference, allowing multiple test concentrations of iclaprim to be assayed in the presence of various concentrations of the other antibiotic in microtiter plates. The same growth media and conditions were used as described in 3.2 below.
(§4) Two different dilutions were used for iclaprim depending on the MIC determined for the bacterium. […] Iclaprim and the other antibiotic being tested were also dispensed alone in the last row and in the last column, respectively, as controls.
(§5) The Fractional Inhibitory Concentrations (FIC) for each added agent were calculated and used to determine the sum of FIC (ΣFIC) indicative of the synergistic potential of a given combination as described in Veyssier P. (1999), Inhibiteurs de la dihydrofolate reductase, nitrohétérocycles (furanes) et 8-hydroxyquinoleines, pp. 995-1027, in A. Bryskier (ed.), Antibiotiques agents antibatériens et antifongiques, 1st Ed., Ellipses Edition Marketing SA, Paris, the entire disclosure of which is herein incorporated by reference. Synergy was defined whereby the ΣFIC was <0.5, indifference (no synergy nor antagonism) whereby ΣFIC was ≥0.5 but ≤4, and antagonism whereby ΣFIC was >4. Additivity as a special form of indifference was defined whereby the ΣFIC was ≥0.5 but <1, for example as described in Stevens, D L et al. (1998), In vitro antimicrobial effects of various combinations of penicillin and clindamycin against four strains of Streptococcus pyogenes, J. Antimicrob. Chemother. 42: 1266-1268, the entire disclosure of which is herein incorporated by reference.

[3] = system: Klebsiella pneumoniae ATCC 33495; test: checkerboard synergy assay with iclaprim; format: cell-based; conditions: antibiotic in combination with iclaprim; K. pneumoniae 33495
Procedure: as §3, §4, §5

[4] = system: Haemophilus influenzae ATCC 49766; test: checkerboard synergy assay with iclaprim; format: cell-based; conditions: antibiotic in combination with iclaprim; H. influenzae 49766
Procedure: as §3, §4, §5

[5] = system: Streptococcus pneumoniae ATCC 49619; test: checkerboard synergy assay with iclaprim; format: cell-based; conditions: antibiotic in combination with iclaprim; S. pneumoniae 49619
Procedure: as §3, §4, §5

[6] = system: Moraxella catarrhalis RA 21; test: checkerboard synergy assay with iclaprim; format: cell-based; conditions: antibiotic in combination with iclaprim; M. catarrhalis RA 21
Procedure: as §3, §4, §5

S. pneumoniae 1/1 [7] = test: checkerboard synergy assay with iclaprim; format: cell-based, Streptococcus pneumoniae; conditions: antibiotic in combination with iclaprim
Procedure: as §3, §4, §5

S. aureus 101 [8] = test: checkerboard synergy assay with iclaprim; format: cell-based, Staphylococcus aureus; conditions: antibiotic in combination with iclaprim
Procedure: as §3, §4, §5

[9] = system: Staphylococcus aureus ATCC 25923; test: MIC determination; format: cell-based; conditions: Staphylococcus aureus, read-out: Minimum inhibitory concentrations (MIC)
Procedure: as §1, §2

[10] = system: Klebsiella pneumoniae ATCC 33495; test: MIC determination; format: cell-based; conditions: Klebsiella pneumoniae, read-out: Minimum inhibitory concentrations (MIC)
Procedure: as §1, §2

[11] = system: Haemophilus influenzae ATCC 49766; test: MIC determination; format: cell-based; conditions: Haemophilus influenzae, read-out: Minimum inhibitory concentrations (MIC)
Procedure: as §1, §2

[12] = system: Streptococcus pneumoniae ATCC 49619; test: MIC determination; format: cell-based; conditions: Streptococcus pneumoniae, read-out: Minimum inhibitory concentrations (MIC)
Procedure: as §1, §2

[13] = system: Moraxella catarrhalis RA 21; test: MIC determination; format: cell-based; conditions: Moraxella catarrhalis, read-out: Minimum inhibitory concentrations (MIC)
Procedure: as §1, §2

S. pneumoniae 1/1 [14] = test: MIC determination; format: cell-based, Streptococcus pneumoniae; conditions: Streptococcus pneumoniae, read-out: Minimum inhibitory concentrations (MIC)
Procedure: as §1, §2

[15] = Staphylococcus aureus, 101, 18 h; read-out: Minimum inhibitory concentrations (MIC)
[16] = ATCC25923, S. aureus 25923, 18 hours at 37° C.
[17] = ATCC33495, K. pneumonia 33495, 18 hours at 37° C.
[18] = ATCC49766, H. Influenza 49766, 18 hours at 37° C., 5% CO2
[19] = ATCC49619, S. pneumoniae 49619, 18 hours at 37° C., 5% CO2
[20] = RA21, M. catarrhalis RA 21, 18 hours at 37° C., 5% CO2
[21] = S. pneumoniae 1/1, 18 hours at 37° C., 5% CO2

## CCn1cc(C(=O)O)c(=O)c2cc(F)c(N3CCNC(C)C3)c(F)c21 (centres unmarked) [Lomefloxacin]
S. aureus 101 [1]; [15]
  MIC: 128 µg/mL
[2]
  Σ FIC: 1.06-1.50
[3]
  Con (Conclusion): Ind (Indifference (Ind))
  Σ FIC: 1.13-1.50
[4]
  Con (Conclusion): Ind (Indifference (Ind))
  Σ FIC: 1.06-1.50
[5]
  Σ FIC: 0.75-1.13
[6]
  Con (Conclusion): Ad (Additivity (Ad))
  Σ FIC: 0.63-1.13
S. pneumoniae 1/1 [7]
  Σ FIC: 0.75-1.13
S. aureus 101 [8]
  Σ FIC: 1.02-1.50
[9]; [16]
  MIC: 1 µg/mL
[10]; [17]
  MIC: 4 µg/mL
[11]; [18]
  MIC: 0.125 µg/mL
[12]; [19]
  MIC: 8 µg/mL
[13]; [20]
  MIC: 0.5 µg/mL
S. pneumoniae 1/1 [14]; [21]
  MIC: 8 µg/mL

## CO[C@@H]1[C@@H](OC(N)=O)[C@@H](O)[C@H](Oc2ccc3c(O)c(NC(=O)c4ccc(O)c(CC=C(C)C)c4)c(=O)oc3c2C)OC1(C)C [Novobiocin]
S. aureus 101 [1]; [15]
  MIC: 0.25 µg/mL
[2]
  Σ FIC: 1.02-1.50
[3]
  Con (Conclusion): Ind (Indifference (Ind))
  Σ FIC: 1.00-1.25
[4]
  Con (Conclusion): Ind (Indifference (Ind))
  Σ FIC: 1.03-1.50
[5]
  Σ FIC: 0.75-1.13
[6]
  Con (Conclusion): Ind (Indifference (Ind))
  Σ FIC: 1.00-1.05
S. pneumoniae 1/1 [7]
  Σ FIC: 1.03-1.50
S. aureus 101 [8]
  Σ FIC: 1.03-1.50
[9]; [16]
  MIC: 0.5 µg/mL
[10]; [17]
  MIC: 128 µg/mL
[11]; [18]
  MIC: 0.25 µg/mL
[12]; [19]
  MIC: 2 µg/mL
[13]; [20]
  MIC: 0.25 µg/mL
S. pneumoniae 1/1 [14]; [21]
  MIC: 4 µg/mL

## COc1ccc(C[C@H](N)C(=O)N[C@H]2[C@@H](O)[C@H](n3cnc4c(N(C)C)ncnc43)O[C@@H]2CO)cc1 [Puromycin]
S. aureus 101 [1]; [15]
  MIC: 16 µg/mL
[2]
  Σ FIC: 1.06-1.50
[3]
  Con (Conclusion): Ind (Indifference (Ind))
  Σ FIC: 1.01-1.50
[4]
  Con (Conclusion): Ind (Indifference (Ind))
  Σ FIC: 1.06-1.50
[5]
  Σ FIC: 0.63-1.25
[6]
  Con (Conclusion): Ind (Indifference (Ind))
  Σ FIC: 1.06-1.50
S. pneumoniae 1/1 [7]
  Σ FIC: 1.13-1.50
S. aureus 101 [8]
  Σ FIC: 1.13-1.50
[9]; [16]
  MIC: 32 µg/mL
[10]; [17]
  MIC: > 128 µg/mL
[11]; [18]
  MIC: 8 µg/mL
[12]; [19]
  MIC: 8 µg/mL
[13]; [20]
  MIC: 4 µg/mL
S. pneumoniae 1/1 [14]; [21]
  MIC: 8 µg/mL

## C[C@@H]1O[C@@H]1P(=O)(O)O [Fosfomycin]
S. aureus 101 [1]; [15]
  MIC: 64 µg/mL
[2]
  Σ FIC: 1.13-1.50
[3]
  Con (Conclusion): Ind (Indifference (Ind))
  Σ FIC: 1.01-1.50
[4]
  Con (Conclusion): Ad (Additivity (Ad))
  Σ FIC: 0.74-1.12
[5]
  Σ FIC: 1.06-1.50
[6]
  Con (Conclusion): Ind (Indifference (Ind))
  Σ FIC: 1.02-1.50
S. pneumoniae 1/1 [7]
  Σ FIC: 1.00-1.06
S. aureus 101 [8]
  Σ FIC: 1.03-1.50
[9]; [16]
  MIC: 8 µg/mL
[10]; [17]
  MIC: > 128 µg/mL
[11]; [18]
  MIC: 0.062 µg/mL
[12]; [19]
  MIC: 32 µg/mL
[13]; [20]
  MIC: 128 µg/mL
S. pneumoniae 1/1 [14]; [21]
  MIC: 32 µg/mL

## CN[C@H](CC(C)C)C(=O)N[C@H]1C(=O)N[C@@H](CC(N)=O)C(=O)N[C@H]2C(=O)N[C@H]3C(=O)N[C@H](C(=O)N[C@H](C(=O)O)c4cc(O)cc(O)c4-c4cc3ccc4O)[C@H](O)c3ccc(c(Cl)c3)Oc3cc2cc(c3O[C@@H]2O[C@H](CO)[C@@H](O)[C@H](O)[C@H]2O[C@H]2C[C@](C)(N)[C@H](O)[C@H](C)O2)Oc2ccc(cc2Cl)[C@H]1O [Vancomycin]
S. aureus 101 [1]; Staphylococcus aureus, 101, 18 h, read-out: Minimum inhibitory concentrations (MIC)
  MIC: 2 µg/mL
[2]
  Σ FIC: 1.03-1.50
[3]
  Con (Conclusion): Ind (Indifference (Ind))
  Σ FIC: 1.01-1.50
[4]
  Con (Conclusion): Ind (Indifference (Ind))
  Σ FIC: 1.00-1.25
[5]
  Σ FIC: 1.00-1.25
[6]
  Con (Conclusion): Ad (Additivity (Ad))
  Σ FIC: 0.75-1.13
S. pneumoniae 1/1 [7]
  Σ FIC: 0.56-1.03
S. aureus 101 [8]
  Σ FIC: 0.75-1.25
[9]; ATCC25923, 18 h
  MIC: 2 µg/mL
[10]; ATCC33495, 18 h
  MIC: > 128 µg/mL
[11]; ATCC49766, 18 h
  MIC: 128 µg/mL
[12]; ATCC49619, 18 h
  MIC: 0.5 µg/mL
[13]; RA21, 18 h
  MIC: > 128 µg/mL
S. pneumoniae 1/1 [14]; 1/1, 18 h
  MIC: 0.5 µg/mL

## CCn1cc(C(=O)O)c(=O)c2cc(F)c(N3CCNCC3)cc21 [Norfloxacin]
S. aureus 101 [1]; [15]
  MIC: 128 µg/mL
[2]
  Σ FIC: 0.56-1.25
[3]
  Con (Conclusion): Ad (Additivity (Ad))
  Σ FIC: 0.75-1.13
[4]
  Con (Conclusion): Ad (Additivity (Ad))
  Σ FIC: 0.52-1.25
[5]
  Σ FIC: 1.00-1.25
[6]
  Con (Conclusion): Ad (Additivity (Ad))
  Σ FIC: 0.56-1.13
S. pneumoniae 1/1 [7]
  Σ FIC: 1.13-1.50
S. aureus 101 [8]
  Σ FIC: 1.02-1.50
[9]; [16]
  MIC: 1 µg/mL
[10]; [17]
  MIC: 2 µg/mL
[11]; [18]
  MIC: 0.125 µg/mL
[12]; [19]
  MIC: 4 µg/mL
[13]; [20]
  MIC: 0.5 µg/mL
S. pneumoniae 1/1 [14]; [21]
  MIC: 4 µg/mL

## Cc1onc(-c2ccccc2Cl)c1C(=O)N[C@@H]1C(=O)N2[C@@H]1SC(C)(C)[C@@H]2C(=O)O [Cloxacillin]
S. aureus 101 [1]; [15]
  MIC: 2 µg/mL
[2]
  Σ FIC: 0.99-1.25
[3]
  Con (Conclusion): Ind (Indifference (Ind))
  Σ FIC: 1.01-2.50
[4]
  Con (Conclusion): Ind (Indifference (Ind))
  Σ FIC: 1.13-1.50
[5]
  Σ FIC: 1.00-1.25
[6]
  Con (Conclusion): Ad (Additivity (Ad))
  Σ FIC: 0.53-1.00
S. pneumoniae 1/1 [7]
  Σ FIC: 1.00-1.25
S. aureus 101 [8]
  Σ FIC: 1.00-1.25
[9]; [16]
  MIC: 0.25 µg/mL
[10]; [17]
  MIC: > 128 µg/mL
[11]; [18]
  MIC: 16 µg/mL
[12]; [19]
  MIC: 8 µg/mL
[13]; [20]
  MIC: 64 µg/mL
S. pneumoniae 1/1 [14]; [21]
  MIC: 64 µg/mL
